# Source: patent US12371454B2, “Cyclic peptide compound having Kras inhibitory action” (priority 2019, dated 2025)
# pIC50: −log10 of the molar value. Starred links: 1 amine or outer side, 2 acyl side, 3 side chain; linkers in the order of their positions; H or OH if unused. Positions of bridges follow the written chain, without caps; N, C: chain ends. Non-standard residues stand in square brackets, D forms with d. Residues, ends and D or L forms follow the SMILES beside them. *: point of attachment. hPhe(3,5-F2-4-CF3) = N[C@@H](CCc1cc(F)c(C(F)(F)F)c(F)c1)C(=O)O; hPhe(3-Cl-4-CF3) = N[C@@H](CCc1ccc(C(F)(F)F)c(Cl)c1)C(=O)O; NMePhe(4-CF3) = CN[C@@H](Cc1ccc(C(F)(F)F)cc1)C(=O)O; NMeAbu(4,4,4-F3) = CN[C@@H](CC(F)(F)F)C(=O)O; NMePhe(3-Cl) = CN[C@@H](Cc1cccc(Cl)c1)C(=O)O; NMePhe(4-Me) = CN[C@@H](Cc1ccc(C)cc1)C(=O)O; NMedβ3hAla = C[C@H](CC(=O)[*:2])N(C)[*:1]; NMeGly(cPent) = CN[C@H](C(=O)O)C1CCCC1; NMeGly(cBu) = CN[C@H](C(=O)O)C1CCC1; NMeCha = CN[C@@H](CC1CCCCC1)C(=O)O; NMeChg = CN[C@H](C(=O)O)C1CCCCC1; NMeI = CC[C@H](C)[C@H](NC)C(=O)O; NMeD = CN[C@@H](CC(=O)O)C(=O)O; NMeL = CN[C@@H](CC(C)C)C(=O)O; NMeV = CN[C@H](C(=O)O)C(C)C; d(β3hA) = C[C@@H](N)CC(=O)O; NMeA = CN[C@@H](C)C(=O)O; Piperidide = C1CCN(*)CC1; Pyrrolidide = C1CCN(*)C1; dNMeA = CN[C@H](C)C(=O)O; Ac5c = NC1(C(=O)O)CCCC1; Aze = O=C(O)[C@@H]1CCN1; Ac4c = NC1(C(=O)O)CCC1; Sar = CNCC(=O)O
# Legend:
# [1] = molecular target: T1, Kras and SOS1 (biotin-tagged human Kras loaded with GDP, His-tagged human SOS1) (Homo sapiens, UniProt P01116, G12D); assay: Protein-protein interaction inhibition between Kras and SOS1 (KrasGl2D-SOS PPI) using AlphaScreen; format: binding; settings: AlphaScreen; biotin-tagged human Kras loaded with GDP, His-tagged human SOS1; read-out: KRAS G12D-SOS PPI IC50
# T1 construct: made in house; host or cells: E. coli (stated for Kras only)
# In short: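 Energy transfer from nickel-chelate donor beads bound to His-SOS1 to streptavidin acceptor beads bound to biotin-Kras, expressed in E. coli and loaded with GDP after purification, was monitored. Donors were excited at 680 nm; singlet oxygen reaching acceptors gave emission read at 520-620 nm.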
# [2] = system: Human pancreatic cancer cell line AsPC-1; assay: Measurement of AsPC-1 cell growth inhibition (AsPC-1 CGI); format: cell-based; settings: 96 h
# In short: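 AsPC-1 cells in 15% FBS RPMI-1640 were exposed to test compound for 96 hours at 37° C, with CellTiter-Glo as endpoint.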
# T1 sequence (P01116 1-188 isoform P01116-2 G12D): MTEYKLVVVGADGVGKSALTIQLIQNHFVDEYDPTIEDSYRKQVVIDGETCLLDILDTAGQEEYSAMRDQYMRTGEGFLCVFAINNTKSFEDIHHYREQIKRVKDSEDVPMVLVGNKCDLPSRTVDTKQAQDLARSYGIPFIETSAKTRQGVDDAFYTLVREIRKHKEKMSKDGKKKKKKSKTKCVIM
Structure (SMILES),pIC50 [1],pIC50 [2]
CC[C@H](C)[C@@H]1NC(=O)[C@H](C2CCC2)N(C)C(=O)C[C@@H](C(=O)N2CCCC2)N(C)C(=O)[C@H](C2CCCCC2)N(C)C(=O)C2(CCCC2)NC(=O)[C@@H]2CCCN2C(=O)[C@H](CCc2ccc(C(F)(F)F)c(Cl)c2)NC(=O)CN(C)C(=O)[C@H](Cc2ccc(C)cc2)N(C)C(=O)CN(C)C(=O)CN(C)C1=O [Compound 339] ([NMeGly(cBu)]I[Sar][Sar][NMePhe(4-Me)][Sar][hPhe(3-Cl-4-CF3)]P[Ac5c][NMeChg][NMeD]-Pyrrolidide; lactam N-11),9.42,7.30 to 7.70
CC[C@H](C)[C@@H]1NC(=O)[C@H](CC(C)C)N(C)C(=O)C[C@@H](C(=O)N(C)C)N(C)C(=O)[C@H]([C@@H](C)CC)N(C)C(=O)C2(CCCC2)NC(=O)[C@H](C)NC(=O)[C@H](CCc2ccc(C(F)(F)F)c(Cl)c2)NC(=O)CN(C)C(=O)[C@H](Cc2ccc(C)cc2)N(C)C(=O)[C@@H]2CCN2C(=O)[C@H](C)N(C)C1=O [Compound 957] ([NMeL]I[NMeA][Aze][NMePhe(4-Me)][Sar][hPhe(3-Cl-4-CF3)]A[Ac5c][NMeI][NMeD]-NMe2; lactam N-11),9.36,6.30 to 7.00
"CC[C@H](C)[C@@H]1NC(=O)[C@H](CC(F)(F)F)N(C)C(=O)C[C@@H](C(=O)N2CCCC2)N(C)C(=O)[C@H](C2CCCCC2)N(C)C(=O)C2(CCCC2)NC(=O)[C@@H]2CCCN2C(=O)[C@H](CCc2cc(F)c(C(F)(F)F)c(F)c2)NC(=O)CN(C)C(=O)[C@H](Cc2ccc(C)cc2)N(C)C(=O)CN(C)C(=O)CN(C)C1=O [Compound 1278] ([NMeAbu(4,4,4-F3)]I[Sar][Sar][NMePhe(4-Me)][Sar][hPhe(3,5-F2-4-CF3)]P[Ac5c][NMeChg][NMeD]-Pyrrolidide; lactam N-11)",9.19,7.30 to 7.70
CC[C@H](C)[C@@H]1NC(=O)[C@H](CC(C)C)N(C)C(=O)C[C@@H](C(=O)N2CCCCC2)N(C)C(=O)[C@H](C2CCCCC2)N(C)C(=O)C2(CCC2)NC(=O)[C@@H]2CCCN2C(=O)[C@H](CCc2ccc(C(F)(F)F)c(Cl)c2)NC(=O)CN(C)C(=O)[C@H](CC2CCCCC2)N(C)C(=O)CN(C)C(=O)CN(C)C1=O [Compound 1821] ([NMeL]I[Sar][Sar][NMeCha][Sar][hPhe(3-Cl-4-CF3)]P[Ac4c][NMeChg][NMeD]-Piperidide; lactam N-11),9.00,7.30 to 7.70
CC[C@H](C)[C@@H]1NC(=O)[C@H](CC(C)C)N(C)C(=O)C[C@@H](C)NC(=O)[C@H](C2CCCC2)N(C)C(=O)C2(CCC2)NC(=O)[C@@H]2CCCN2C(=O)[C@H](CCc2ccc(C(F)(F)F)c(Cl)c2)NC(=O)CN(C)C(=O)[C@H](Cc2ccc(C(F)(F)F)cc2)N(C)C(=O)CN(C)C(=O)CN(C)C1=O [Compound 1508] (cyclo([Ac4c][NMeGly(cPent)][d(β3hA)][NMeL]I[Sar][Sar][NMePhe(4-CF3)][Sar][hPhe(3-Cl-4-CF3)]P)),8.89,6.30 to 7.00
CC[C@H](C)[C@@H]1NC(=O)[C@H](C)N(C)C(=O)C[C@@H](C)NC(=O)[C@H](C2CCCC2)N(C)C(=O)C2(CCCC2)NC(=O)[C@@H]2CCCN2C(=O)[C@H](CCc2ccc(C(F)(F)F)c(Cl)c2)NC(=O)CN(C)C(=O)[C@H](Cc2ccc(C)cc2)N(C)C(=O)[C@@H]2CCN2C(=O)CN(C)C1=O [Compound 1462] (cyclo([Ac5c][NMeGly(cPent)][d(β3hA)][NMeA]I[Sar][Aze][NMePhe(4-Me)][Sar][hPhe(3-Cl-4-CF3)]P)),9.10,6.30 to 7.00
CC[C@H](C)[C@@H]1NC(=O)[C@H](CC(C)C)N(C)C(=O)C[C@@H](C(=O)N2CCCCC2)N(C)C(=O)[C@H](C(C)C)N(C)C(=O)C2(CCCC2)NC(=O)[C@@H]2CCCN2C(=O)[C@H](CCc2ccc(C(F)(F)F)c(Cl)c2)NC(=O)CN(C)C(=O)[C@H](Cc2cccc(Cl)c2)N(C)C(=O)CN(C)C(=O)CN(C)C1=O [Compound 1611] ([NMeL]I[Sar][Sar][NMePhe(3-Cl)][Sar][hPhe(3-Cl-4-CF3)]P[Ac5c][NMeV][NMeD]-Piperidide; lactam N-11),8.49,6.30 to 7.00
CC[C@H](C)[C@@H]1NC(=O)[C@H](C)N(C)C(=O)C[C@@H](C)N(C)C(=O)[C@H](C(C)C)N(C)C(=O)C2(CCCC2)NC(=O)[C@@H]2CCCN2C(=O)[C@H](CCc2ccc(C(F)(F)F)c(Cl)c2)NC(=O)[C@@H](C)N(C)C(=O)[C@H](CC2CCCCC2)N(C)C(=O)[C@@H]2CCCN2C(=O)CN(C)C1=O [Compound 1784] (cyclo([Ac5c][NMeV][NMedβ3hAla][NMeA]I[Sar]P[NMeCha][dNMeA][hPhe(3-Cl-4-CF3)]P)),7.96,7.00 to 7.30
